In brackets after ≈: the same amount, converted by molar mass. Activity calls are given as the source filed them. No cut-off for these calls is given here.
Experiments:
HepG2 [1] = assay: Cell cycle arrest in human HepG2 cells assessed as accumulation at sub-G1 phase at 6.4 ug/mL after 48 hrs by propidium iodide staining-based flow cytometric analysis (reference value: 3%); format: functional
HepG2 [2] = assay: Induction of apoptosis in human HepG2 cells assessed as nuclear condensation at 4.8 ug/mL after 24 hrs by acridine orange/ethidium bromide staining-based fluorescence microscopic analysis; format: functional, cell-based
HepG2 [3] = assay: Cell cycle arrest in human HepG2 cells assessed as accumulation at sub-G1 phase at 4.8 ug/mL after 24 hrs by propidium iodide staining-based flow cytometric analysis (reference value: 4%); format: functional
HepG2 [4] = assay: Cell cycle arrest in human HepG2 cells assessed as accumulation at S phase at 3.2 ug/mL after 48 hrs by propidium iodide staining-based flow cytometric analysis (reference value: 31%); format: functional
HepG2 [5] = assay: Induction of apoptosis in human HepG2 cells assessed as apoptotic body formation at 8 ug/mL after 24 hrs by acridine orange/ethidium bromide staining-based fluorescence microscopic analysis; format: functional, cell-based
HepG2 [6] = assay: Induction of apoptosis in human HepG2 cells assessed as mitochondrial cytochrome c-dependent caspase-9 activation at 1.6 to 4.8 ug/mL after 24 hrs by Western blot analysis; format: functional, cell-based
HepG2 [7] = assay: Cell cycle arrest in human HepG2 cells assessed as accumulation at S phase at 6.4 ug/mL after 48 hrs by propidium iodide staining-based flow cytometric analysis (reference value: 31%); format: functional
HepG2 [8] = assay: Cell cycle arrest in human HepG2 cells assessed as accumulation at G2/M phase at 8 ug/mL after 48 hrs by propidium iodide staining-based flow cytometric analysis (reference value: 5%); format: functional
HepG2 [9] = assay: Cell cycle arrest in human HepG2 cells assessed as accumulation at sub-G1 phase at 3.2 ug/mL after 24 hrs by propidium iodide staining-based flow cytometric analysis (reference value: 4%); format: functional
HepG2 [10] = assay: Cell cycle arrest in human HepG2 cells assessed as accumulation at sub-G1 phase at 1.6 ug/mL after 24 hrs by propidium iodide staining-based flow cytometric analysis (reference value: 4%); format: functional
HepG2 [11] = assay: Cell cycle arrest in human HepG2 cells assessed as accumulation at sub-G1 phase at 6.4 ug/mL after 24 hrs by propidium iodide staining-based flow cytometric analysis (reference value: 4%); format: functional
HepG2 [12] = assay: Cell cycle arrest in human HepG2 cells assessed as accumulation at S phase at 8 ug/mL after 48 hrs by propidium iodide staining-based flow cytometric analysis (reference value: 31%); format: functional
HepG2 [13] = assay: Cell cycle arrest in human HepG2 cells assessed as accumulation at G1 phase at 8 ug/mL after 24 hrs by propidium iodide staining-based flow cytometric analysis (reference value: 45%); format: functional
HepG2 [14] = assay: Induction of apoptosis in human HepG2 cells assessed as increase in early apoptotic cells after 24 hrs by annexin V-FITC/propidium iodide staining-based FACS flow cytometric analysis; format: functional, cell-based
HepG2 [15] = assay: Cell cycle arrest in human HepG2 cells assessed as accumulation at G1 phase at 4.8 ug/mL after 24 hrs by propidium iodide staining-based flow cytometric analysis (reference value: 45%); format: functional
HepG2 [16] = assay: Induction of apoptosis in human HepG2 cells assessed as appearance of cell shrinkage at 4.8 to 8 ug/mL after 24 hrs by inverted microscopic analysis relative to control; format: functional, cell-based
HepG2 [17] = assay: Cytotoxicity against human HepG2 cells assessed as cell viability after 48 hrs by MTT assay; format: functional, cell-based; conditions: HepG2, 48 h
H22 [18] = assay: Antitumor activity against mouse H22 cells allografted in Kunming mouse assessed as decrease in weight of tumor mass at 1 mg/kg/day, ip administered 8 days measured after 10 days relative to control; format: functional; design: scale not given: the % may be the effect or the level left; conditions: route intraperitoneal
HepG2 [19] = assay: Cell cycle arrest in human HepG2 cells assessed as accumulation at sub-G1 phase at 1.6 ug/mL after 48 hrs by propidium iodide staining-based flow cytometric analysis (reference value: 3%); format: functional
H22 [20] = assay: Antitumor activity against mouse H22 cells allografted in Kunming mouse assessed as decrease in weight of tumor mass at 0.5 mg/kg/day, ip administered 8 days measured after 10 days relative to control; format: functional; design: scale not given: the % may be the effect or the level left; conditions: route intraperitoneal
HepG2 [21] = assay: Cell cycle arrest in human HepG2 cells assessed as accumulation at G2/M phase at 1.6 ug/mL after 48 hrs by propidium iodide staining-based flow cytometric analysis (reference value: 5%); format: functional
H22 [22] = assay: Antitumor activity against mouse H22 cells allografted in Kunming mouse assessed as decrease in tumor size at 0.5 to 1 mg/kg/day, ip administered 8 days measured after 10 days; format: functional, organism-based
HepG2 [23] = assay: Cell cycle arrest in human HepG2 cells assessed as accumulation at S phase at 1.6 ug/mL after 48 hrs by propidium iodide staining-based flow cytometric analysis (reference value: 31%); format: functional
HepG2 [24] = assay: Induction of apoptosis in human HepG2 cells assessed as appearance of membrane blebbing at 4.8 to 8 ug/mL after 24 hrs by inverted microscopic analysis relative to control; format: functional, cell-based
HepG2 [25] = assay: Cell cycle arrest in human HepG2 cells assessed as accumulation at S phase at 1.6 ug/mL after 24 hrs by propidium iodide staining-based flow cytometric analysis (reference value: 46%); format: functional
HepG2 [26] = assay: Cell cycle arrest in human HepG2 cells assessed as accumulation at S phase at 4.8 ug/mL after 24 hrs by propidium iodide staining-based flow cytometric analysis (reference value: 46%); format: functional
HepG2 [27] = assay: Cell cycle arrest in human HepG2 cells assessed as accumulation at G2/M phase at 3.2 ug/mL after 24 hrs by propidium iodide staining-based flow cytometric analysis (reference value: 9%); format: functional
HepG2 [28] = assay: Cell cycle arrest in human HepG2 cells assessed as accumulation at G1 phase at 3.2 ug/mL after 24 hrs by propidium iodide staining-based flow cytometric analysis (reference value: 45%); format: functional
HepG2 [29] = assay: Cytotoxicity against human HepG2 cells assessed as cell viability after 24 hrs by MTT assay; format: functional, cell-based; conditions: HepG2, 24 h
HepG2 [30] = assay: Cell cycle arrest in human HepG2 cells assessed as accumulation at S phase at 8 ug/mL after 24 hrs by propidium iodide staining-based flow cytometric analysis (reference value: 46%); format: functional

COC1=CC(=O)c2c(O)cccc2C1=O
Activity (HepG2 [1]): 18%
Activity (HepG2 [2]): Active
Activity (HepG2 [3]): 7%
Activity (HepG2 [4]): 64%
Activity (HepG2 [5]): Active
Activity (HepG2 [6]): Active
Activity (HepG2 [7]): 52%
Activity (HepG2 [8]): 0%
Activity (HepG2 [9]): 2%
Activity (HepG2 [10]): 5%
Activity (HepG2 [11]): 6%
Activity (HepG2 [12]): 46%
Activity (HepG2 [13]): 41%
Activity (HepG2 [14]): Dose-dependent effect
Activity (HepG2 [15]): 38%
Activity (HepG2 [16]): Active
IC50 (HepG2 [17]): 3.7 µg/mL (≈ 18.1 µM)
Activity (H22 [18]): 67%
Activity (HepG2 [19]): 6%
Activity (H22 [20]): 56%
Activity (HepG2 [21]): 1%
Activity (H22 [22]): Active
Activity (HepG2 [23]): 49%
Activity (HepG2 [24]): Active
Activity (HepG2 [25]): 62%
Activity (HepG2 [26]): 62%
Activity (HepG2 [27]): 2%
Activity (HepG2 [28]): 34%
IC50 (HepG2 [29]): 3.8 µg/mL (≈ 18.6 µM)
Activity (HepG2 [30]): 59%

Reference: ChEMBL document CHEMBL2375211, “2-methoxyjuglone induces apoptosis in HepG2 human hepatocellular carcinoma cells and exhibits in vivo antitumor activity in a H22 mouse hepatocellular carcinoma model” (J Nat Prod, 2013)
